Data published in US11498930B2 (BLUERAY THERAPEUTICS (SHANGHAI) CO., LTD., priority 2018, dated 2022).

Target: SHP2^E76A protein (Homo sapiens (Human), UniProt Q06124, E76A)
Assay: SHP2 enzyme activity inhibition experiment
Type: biochemical
Conditions: SHP2 enzyme activity, Tables 1.1 and 1.2; read-out: IC50
Method: Compound powders were dissolved in DMSO to prepare mother liquor.
During the experiment, the stock solutions of the compounds were subjected to 3-fold gradient dilution with DMSO, and 10 different test concentrations of each compound were set. […] The protein used was the activated protein SHP^2E76A with amino acid mutation at position 76 of the protein, and the substrate used was DiFMUP (Invitrogen, E12020). […] 50 µL of enzyme solution was added to the detection wells, followed by 50 µL of substrate. […] GraphPad Prism 5 was used for nonlinear regression analysis, and the curve of enzyme activity versus compound concentration was fitted by the equation Y=Bottom+(Top-Bottom)/(1+10^((Log IC50−X)*HillSlope)) to calculate the IC50 value of each compound.

Chain of SHP2^E76A protein (Q06124 whole entry E76A): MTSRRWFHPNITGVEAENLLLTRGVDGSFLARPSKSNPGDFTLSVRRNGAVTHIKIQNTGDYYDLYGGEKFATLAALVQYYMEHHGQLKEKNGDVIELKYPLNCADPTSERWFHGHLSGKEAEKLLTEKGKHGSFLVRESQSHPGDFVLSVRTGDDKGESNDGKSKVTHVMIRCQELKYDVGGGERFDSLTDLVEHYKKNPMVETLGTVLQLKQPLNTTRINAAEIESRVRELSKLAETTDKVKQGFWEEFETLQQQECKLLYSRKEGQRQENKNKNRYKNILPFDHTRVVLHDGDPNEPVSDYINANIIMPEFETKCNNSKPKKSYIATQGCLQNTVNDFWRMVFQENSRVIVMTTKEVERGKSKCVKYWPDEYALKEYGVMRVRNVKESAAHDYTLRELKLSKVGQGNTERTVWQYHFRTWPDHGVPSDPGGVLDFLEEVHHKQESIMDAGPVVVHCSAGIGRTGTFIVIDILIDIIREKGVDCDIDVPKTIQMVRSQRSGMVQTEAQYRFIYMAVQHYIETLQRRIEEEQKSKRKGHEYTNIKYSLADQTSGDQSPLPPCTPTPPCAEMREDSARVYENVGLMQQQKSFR

Compound | IC50 [µM]
C[C@H]1OCC2(CCN(c3ncc(Sc4ccnc(N)c4Cl)c4nncn34)CC2)[C@H]1N | 1 to 10
C[C@H]1OCC2(CCN(c3ncc(Sc4cccc(Cl)c4Cl)c4nncn34)CC2)[C@H]1N | 1 to 10
C[C@@H]1OCC2(CCN(c3ncc(Sc4cc(N)ncc4Cl)c4nccn34)CC2)[C@@H]1N | < 0.1
N[C@@H]1CCCC12CCN(c1ncc(Sc3cccc4c3C(=O)C(=O)N4)c3nccn13)CC2 | 0.1 to 1
Cc1nc(N)cc(Sc2cnc(N3CCC4(CCC[C@H]4N)CC3)n3ccnc23)c1Cl | < 0.1
Cc1ncccc1Sc1cnc(N2CCC3(CCC[C@H]3N)CC2)n2ncnc12 | 1 to 10
Nc1ccc(Sc2cnc(N3CCC4(CCC[C@H]4N)CC3)n3ncnc23)cc1 | 1 to 10
CN(C)C(=O)C(=O)Nc1cccc(Sc2cnc(N3CCC4(CCC[C@H]4N)CC3)n3ccnc23)c1Cl | 0.1 to 1
Cc1nccc(Sc2cnc(N3CCC4(CC3)COC[C@H]4N)n3cnnc23)c1Cl | 0.1 to 1
CC1(N)CCN(c2ncc(-c3cccc(Cl)c3Cl)c3nncn23)CC1 [1-(8-(2,3-dichlorophenyl)-[1,2,4]triazolo[4,3-c]pyrimidin-5-yl)-4-methylpiperidin-4-amine] | 1 to 10
CC1(N)CCN(c2ncc(Sc3cccc(Cl)c3Cl)c3ncnn23)CC1 [1-(8-((2,3-dichlorophenyl)thio)-[1,2,4]triazolo[1,5-c]pyrimidin-5-yl)-4-methylpiperidin-4-amine] | 1 to 10
NC1CCN(c2ncc(Sc3cccc(Cl)c3Cl)c3nncn23)CC1 [1-(8-((2,3-dichlorophenyl)thio)-[1,2,4]triazolo[4,3-c]pyrimidin-5-yl)piperidin-4-amine] | 1 to 10
NC1CCN(c2ncc(Sc3cccc(Cl)c3Cl)c3nccn23)CC1 [1-(8-((2,3-dichlorophenyl)thio)imidazo[1,2-c]pyrimidin-5-yl)piperidin-4-amine] | 0.1 to 1
NCCC1CCN(c2ncc(Sc3cccc(Cl)c3Cl)c3nncn23)CC1 [2-(1-(8-((2,3-dichlorophenyl)thio)-[1,2,4]triazolo[4,3-c]pyrimidin-5-yl)piperidin-4-yl)ethan-1-amine] | 1 to 10
CC1(N)CCN(c2ncc(Sc3ccnc(N)c3Cl)c3nccn23)CC1 [4-((5-(4-amino-4-methylpiperidin-1-yl)imidazo[1,2-c]pyrimidin-8-yl)thio)-3-chloropyridin-2-amine] | 0.1 to 1
NC1CC2(CCN(c3ncc(Sc4cccc(Cl)c4Cl)c4nncn34)CC2)C1 [7-(8-((2,3-dichlorophenyl)thio)-[1,2,4]triazolo[4,3-c]pyrimidin-5-yl)-7-azaspiro[3.5]nonan-2-amine] | 1 to 10
NC1CC2(CCN(c3ncc(Sc4cccc(Cl)c4Cl)c4nccn34)CC2)C1 [7-(8-((2,3-dichlorophenyl)thio)imidazo[1,2-c]pyrimidin-5-yl)-7-azaspiro[3.5]nonan-2-amine] | 0.1 to 1
Clc1cccc(Sc2cnc(N3CCC4(CCCN4)CC3)n3cnnc23)c1Cl [8-(8-((2,3-dichlorophenyl)thio)-[1,2,4]triazolo[4,3-c]pyrimidin-5-yl)-1,8-diazaspiro[4.5]decane] | 1 to 10
CC1(N)COCC12CCN(c1ncc(Sc3cccc(Cl)c3Cl)c3nncn13)CC2 (centres unmarked) [8-(8-((2,3-dichlorophenyl)thio)-[1,2,4]triazolo[4,3-c]pyrimidin-5-yl)-4-methyl-2-oxa-8-azaspiro[4.5]decan-4-amine] | 1 to 10
CC1CN(c2ncc(Sc3cccc(Cl)c3Cl)c3nncn23)CC(C)N1 (centres unmarked) [8-((2,3-dichlorophenyl)thio)-5-(3,5-dimethylpiperazin-1-yl)-[1,2,4]triazolo[4,3-c]pyrimidine] | 1 to 10
NCC1(c2ccccc2)CCN(c2ncc(Sc3cccc(Cl)c3Cl)c3nccn23)CC1 [(1-(8-((2,3-dichlorophenyl)thio)imidazo[1,2-c]pyrimidin-5-yl)-4-phenylpiperidin-4-yl)methanamine] | 0.1 to 1
NCC1CCN(c2ncc(Sc3cccc(Cl)c3Cl)c3nccn23)CC1 [(1-(8-((2,3-dichlorophenyl)thio)imidazo[1,2-c]pyrimidin-5-yl)piperidin-4-yl)methanamine] | 0.1 to 1

Compound | IC50 [µM]
NCC1CCN(c2ncc(Sc3cccc(Cl)c3Cl)c3nccn23)C1 (centres unmarked) [(1-(8-((2,3-dichlorophenyl)thio)imidazo[1,2-c]pyrimidin-5-yl)pyrrolidin-3-yl)methanamine] | 0.1 to 1
C[C@H]1OCC2(CCN(c3ncc(Sc4cccc(Cl)c4Cl)c4ncnn34)CC2)[C@H]1N [(3R,4R)-8-(8-((2,3-dichlorophenyl)thio)-[1,2,4]triazolo[1,5-c]pyrimidin-5-yl)-3-methyl-2-oxa-8-azaspiro[4.5]decan-4-amine] | 1 to 10
C[C@H]1OCC2(CCN(c3ncc(Sc4cccc(Cl)c4Cl)c4ncnn34)CC2)[C@@H]1N [(3R,4S)-8-(8-((2,3-dichlorophenyl)thio)-[1,2,4]triazolo[1,5-c]pyrimidin-5-yl)-3-methyl-2-oxa-8-azaspiro[4.5]decan-4-amine] | 0.1 to 1
Cc1nccc(Sc2cnc(N3CCC4(CC3)CO[C@H](C)[C@H]4N)n3cnnc23)c1Cl [(3R,4S)-8-(8-((3-chloro-2-methylpyridin-4-yl)thio)-[1,2,4]triazolo[4,3-c]pyrimidin-5-yl)-3-methyl-2-oxa-8-azaspiro[4.5]decan-4-amine] | < 0.1
N[C@@H]1CCC2CN(c3ncc(Sc4cccc(Cl)c4Cl)c4nncn34)CC21 (stereo partly drawn) [(4R)-2-(8-((2,3-dichlorophenyl)thio)-[1,2,4]triazolo[4,3-c]pyrimidin-5-yl)octahydrocyclopenta[c]pyrrol-4-amine] | 1 to 10
N[C@@H]1CCCN(c2ncc(Sc3cccc(Cl)c3Cl)c3nccn23)CC1 [(R)-1-(8-((2,3-dichlorophenyl)thio)imidazo[1,2-c]pyrimidin-5-yl)azepan-4-amine] | 0.1 to 1
N[C@@H]1CCCCC12CCN(c1ncc(Sc3cccc(Cl)c3Cl)c3nccn13)CC2 [(R)-3-(8-((2,3-dichlorophenyl)thio)imidazo[1,2-c]pyrimidin-5-yl)-3-azaspiro[5.5]undecan-7-amine] | 0.1 to 1
N[C@@H]1CCCC12CCN(c1ncc(-c3cccc(Cl)c3Cl)c3nncn13)CC2 [(R)-8-(8-(2,3-dichlorophenyl)-[1,2,4]triazolo[4,3-c]pyrimidin-5-yl)-8-azaspiro[4.5]decan-1-amine] | 1 to 10
N[C@@H]1CCCC12CCN(c1ncc(-c3cccc(Cl)c3Cl)c3nccn13)CC2 [(R)-8-(8-(2,3-dichlorophenyl)imidazo[1,2-c]pyrimidin-5-yl)-8-azaspiro[4.5]decan-1-amine] | 0.1 to 1
Cn1ccnc1Sc1cnc(N2CCC3(CCC[C@H]3N)CC2)n2cnnc12 [(R)-8-(8-((1-methyl-1H-imidazol-2-yl)thio)-[1,2,4]triazolo[4,3-c]pyrimidin-5-yl)-8-azaspiro[4.5]decan-1-amine] | 1 to 10
CN[C@@H]1CCCC12CCN(c1ncc(Sc3cccc(Cl)c3Cl)c3nncn13)CC2 [(R)-8-(8-((2,3-dichlorophenyl)thio)-[1,2,4]triazolo[4,3-c]pyrimidin-5-yl)-N-methyl-8-azaspiro[4.5]decan-1-amine] | 1 to 10
CC1(C)COC2(CCN(c3ncc(Sc4cccc(Cl)c4Cl)c4nccn34)CC2)[C@@H]1N [(R)-8-(8-((2,3-dichlorophenyl)thio)imidazo[1,2-c]pyrimidin-5-yl)-3,3-dimethyl-1-oxa-8-azaspiro[4.5]decan-4-amine] | 0.1 to 1
N[C@@H]1CCCC12CCN(c1ncc(Sc3ccc4c(c3)CCO4)c3nccn13)CC2 [(R)-8-(8-((2,3-dihydrobenzofuran-5-yl)thio)imidazo[1,2-c]pyrimidin-5-yl)-8-azaspiro[4.5]decan-1-amine] | 0.1 to 1
N[C@@H]1CCCC12CCN(c1ncc(Sc3ccc(Cl)cc3Cl)c3nccn13)CC2 [(R)-8-(8-((2,4-dichlorophenyl)thio)imidazo[1,2-c]pyrimidin-5-yl)-8-azaspiro[4.5]decan-1-amine] | 0.1 to 1
N[C@@H]1CCCC12CCN(c1ncc(Sc3c(Cl)cccc3Cl)c3nncn13)CC2 [(R)-8-(8-((2,6-dichlorophenyl)thio)-[1,2,4]triazolo[4,3-c]pyrimidin-5-yl)-8-azaspiro[4.5]decan-1-amine] | 1 to 10
Nc1cc(Sc2cnc(N3CCC4(CCC[C@H]4N)CC3)n3cnnc23)c(Cl)cn1 [(R)-8-(8-((2-amino-5-chloropyridin-4-yl)thio)-[1,2,4]triazolo[4,3-c]pyrimidin-5-yl)-8-azaspiro[4.5]decan-1-amine] | 1 to 10
N[C@@H]1CCCC12CCN(c1ncc(Sc3ccccc3Cl)c3nccn13)CC2 [(R)-8-(8-((2-chlorophenyl)thio)imidazo[1,2-c]pyrimidin-5-yl)-8-azaspiro[4.5]decan-1-amine] | < 0.1
N[C@@H]1CCCC12CCN(c1ncc(Sc3cccnc3Cl)c3nccn13)CC2 [(R)-8-(8-((2-chloropyridin-3-yl)thio)imidazo[1,2-c]pyrimidin-5-yl)-8-azaspiro[4.5]decan-1-amine] | < 0.1
N[C@@H]1CCCC12CCN(c1ncc(Sc3ccnc(Cl)n3)c3nccn13)CC2 [(R)-8-(8-((2-chloropyrimidin-4-yl)thio)imidazo[1,2-c]pyrimidin-5-yl)-8-azaspiro[4.5]decan-1-amine] | < 0.1
CC(C)c1ccccc1Sc1cnc(N2CCC3(CCC[C@H]3N)CC2)n2ccnc12 [(R)-8-(8-((2-isopropylphenyl)thio)imidazo[1,2-c]pyrimidin-5-yl)-8-azaspiro[4.5]decan-1-amine] | 0.1 to 1
COc1ccccc1Sc1cnc(N2CCC3(CCC[C@H]3N)CC2)n2ncnc12 [(R)-8-(8-((2-methoxyphenyl)thio)-[1,2,4]triazolo[1,5-c]pyrimidin-5-yl)-8-azaspiro[4.5]decan-1-amine] | 0.1 to 1
Cc1ncccc1Sc1cnc(N2CCC3(CCC[C@H]3N)CC2)n2cnnc12 [(R)-8-(8-((2-methylpyridin-3-yl)thio)-[1,2,4]triazolo[4,3-c]pyrimidin-5-yl)-8-azaspiro[4.5]decan-1-amine] | 0.1 to 1
